Laboratory results from the supplement of paper PMC10307832.

What was measured:
Test in all cases: relative viability (nuclei count vs DMSO), 5 days (fraction); higher = more cells survive
A549 = test system: A549
Procedure, shortened: (§1)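 Relative viability was taken as the ratio of nuclei in treated wells to nuclei in vehicle wells. Lung cancer cell lines in 1536-well plates received compounds by pin tool one day after seeding, either one drug alone or a fixed anchor-drug dose plus five library-drug doses (not always all listed) in √10 steps. Nuclei were counted on 4× images after 5 days of treatment, and values are medians of duplicate plates.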

Calu-6 = test system: Calu-6
Procedure, shortened: as §1

EBC-1 = test system: EBC-1
Procedure, shortened: as §1

HCC-366 = test system: HCC-366
Procedure, shortened: as §1

HCC-44 = test system: HCC-44
Procedure, shortened: as §1

IA-LM = test system: IA-LM
Procedure, shortened: as §1

LOU-NH91 = test system: LOU-NH91
Procedure, shortened: as §1

LXF-289 = test system: LXF-289
Procedure, shortened: as §1

NCI-H1299 = test system: NCI-H1299
Procedure, shortened: as §1

NCI-H1437 = test system: NCI-H1437
Procedure, shortened: as §1

NCI-H1703 = test system: NCI-H1703
Procedure, shortened: as §1

NCI-H2085 = test system: NCI-H2085
Procedure, shortened: as §1

NCI-H3122 = test system: NCI-H3122
Procedure, shortened: as §1

`Cc1sc2c(c1C)C(c1ccc(Cl)cc1)=N[C@@H](CC(=O)OC(C)(C)C)c1nnc(C)n1-2` [JQ1] + CC1(C)CCC(c2ccc(Cl)cc2)=C(CN2CCN(c3ccc(C(=O)NS(=O)(=O)c4ccc(N[C@H](CCN5CCOCC5)CSc5ccccc5)c(S(=O)(=O)C(F)(F)F)c4)cc3)CC2)C1 [Navitoclax] (partner 0.5 µM) showed a relative viability (A549; first compound 0.04 µM) of 1.27, a relative viability (A549; first compound 0.1265 µM) of 1.06 and a relative viability (A549; first compound 0.4 µM) of 1.13. It also gave a relative viability (A549; first compound 1.265 µM) of 0.702, a relative viability (A549; first compound 4 µM) of 0.313 and a relative viability (Calu-6; first compound 0.04 µM) of 0.821. The relative viability (Calu-6; first compound 0.1265 µM) was 0.757, the relative viability (Calu-6; first compound 0.4 µM) was 0.792 and the relative viability (Calu-6; first compound 1.265 µM) was 0.481. It also gave a relative viability (Calu-6; first compound 4 µM) of 0.309, a relative viability (EBC-1; first compound 0.04 µM) of 0.389 and a relative viability (EBC-1; first compound 0.1265 µM) of 0.165. For the same compound, the relative viability (EBC-1; first compound 0.4 µM) was 0.174, the relative viability (EBC-1; first compound 1.265 µM) was 0.136 and the relative viability (EBC-1; first compound 4 µM) was 0.125. It also gave a relative viability (HCC-366; first compound 0.04 µM) of 1.05, a relative viability (HCC-366; first compound 0.4 µM) of 0.915 and a relative viability (HCC-366; first compound 1.265 µM) of 0.63. It also gave a relative viability (HCC-366; first compound 4 µM) of 0.115, a relative viability (HCC-44; first compound 0.04 µM) of 1.02 and a relative viability (HCC-44; first compound 0.1265 µM) of 0.802. The relative viability (HCC-44; first compound 0.4 µM) was 0.705, the relative viability (HCC-44; first compound 1.265 µM) was 0.265 and the relative viability (HCC-44; first compound 4 µM) was 0.389. It also gave a relative viability (IA-LM; first compound 0.04 µM) of 0.745, a relative viability (IA-LM; first compound 0.1265 µM) of 0.294 and a relative viability (IA-LM; first compound 0.4 µM) of 0.126. It also gave a relative viability (IA-LM; first compound 1.265 µM) of 0.0769, a relative viability (IA-LM; first compound 4 µM) of 0.0558 and a relative viability (LOU-NH91; first compound 0.04 µM) of 0.637. It also gave a relative viability (LOU-NH91; first compound 0.1265 µM) of 0.606, a relative viability (LOU-NH91; first compound 0.4 µM) of 0.413 and a relative viability (LOU-NH91; first compound 1.265 µM) of 0.411. For the same compound, the relative viability (LOU-NH91; first compound 4 µM) was 0.429, the relative viability (LXF-289; first compound 0.04 µM) was 0.964 and the relative viability (LXF-289; first compound 0.1265 µM) was 0.975. It also gave a relative viability (LXF-289; first compound 0.4 µM) of 0.863, a relative viability (LXF-289; first compound 1.265 µM) of 0.731 and a relative viability (LXF-289; first compound 4 µM) of 0.29. The relative viability (NCI-H1299; first compound 0.04 µM) was 1.02, the relative viability (NCI-H1299; first compound 0.1265 µM) was 0.92 and the relative viability (NCI-H1299; first compound 0.4 µM) was 0.933. For the same compound, the relative viability (NCI-H1299; first compound 1.265 µM) was 0.591, the relative viability (NCI-H1299; first compound 4 µM) was 0.419 and the relative viability (NCI-H1437; first compound 0.04 µM) was 1.03. For the same compound, the relative viability (NCI-H1437; first compound 0.1265 µM) was 0.798, the relative viability (NCI-H1437; first compound 0.4 µM) was 0.693 and the relative viability (NCI-H1437; first compound 1.265 µM) was 0.325. For the same compound, the relative viability (NCI-H1437; first compound 4 µM) was 0.306, the relative viability (NCI-H1703; first compound 0.04 µM) was 1.27 and the relative viability (NCI-H1703; first compound 0.1265 µM) was 0.637. For the same compound, the relative viability (NCI-H1703; first compound 0.4 µM) was 0.928, the relative viability (NCI-H1703; first compound 1.265 µM) was 0.405 and the relative viability (NCI-H1703; first compound 4 µM) was 0.309. It also gave a relative viability (NCI-H2085; first compound 0.04 µM) of 1.08, a relative viability (NCI-H2085; first compound 0.1265 µM) of 1.1 and a relative viability (NCI-H2085; first compound 0.4 µM) of 0.902. The relative viability (NCI-H2085; first compound 1.265 µM) was 0.561, the relative viability (NCI-H2085; first compound 4 µM) was 0.643 and the relative viability (NCI-H3122; first compound 0.04 µM) was 1.01. The relative viability (NCI-H3122; first compound 0.1265 µM) was 1.01, the relative viability (NCI-H3122; first compound 0.4 µM) was 1.07 and the relative viability (NCI-H3122; first compound 1.265 µM) was 0.552. It also gave a relative viability (NCI-H3122; first compound 4 µM) of 0.511.
For `Cc1sc2c(c1C)C(c1ccc(Cl)cc1)=N[C@@H](CC(=O)OC(C)(C)C)c1nnc(C)n1-2` [JQ1] + CS(=O)(=O)CCNCc1ccc(-c2ccc3ncnc(Nc4ccc(OCc5cccc(F)c5)c(Cl)c4)c3c2)o1 [Lapatinib] (partner 2 µM), the relative viability (A549; first compound 0.04 µM) was 0.923, the relative viability (A549; first compound 0.1265 µM) was 0.902 and the relative viability (A549; first compound 0.4 µM) was 1.04. For the same compound, the relative viability (A549; first compound 1.265 µM) was 0.553, the relative viability (A549; first compound 4 µM) was 0.358 and the relative viability (Calu-6; first compound 0.04 µM) was 1.11. The relative viability (Calu-6; first compound 0.1265 µM) was 0.9, the relative viability (Calu-6; first compound 0.4 µM) was 0.999 and the relative viability (Calu-6; first compound 1.265 µM) was 0.598. The relative viability (Calu-6; first compound 4 µM) was 0.564, the relative viability (EBC-1; first compound 0.04 µM) was 0.205 and the relative viability (EBC-1; first compound 0.1265 µM) was 0.208. The relative viability (EBC-1; first compound 0.4 µM) was 0.172, the relative viability (EBC-1; first compound 1.265 µM) was 0.152 and the relative viability (EBC-1; first compound 4 µM) was 0.148. For the same compound, the relative viability (HCC-366; first compound 0.04 µM) was 1.02, the relative viability (HCC-366; first compound 0.4 µM) was 0.877 and the relative viability (HCC-366; first compound 1.265 µM) was 0.461. It also gave a relative viability (HCC-366; first compound 4 µM) of 0.472, a relative viability (HCC-44; first compound 0.04 µM) of 1.07 and a relative viability (HCC-44; first compound 0.1265 µM) of 0.849. For the same compound, the relative viability (HCC-44; first compound 0.4 µM) was 0.795, the relative viability (HCC-44; first compound 1.265 µM) was 0.488 and the relative viability (HCC-44; first compound 4 µM) was 0.532. For the same compound, the relative viability (IA-LM; first compound 0.04 µM) was 0.63, the relative viability (IA-LM; first compound 0.1265 µM) was 0.32 and the relative viability (IA-LM; first compound 0.4 µM) was 0.123. For the same compound, the relative viability (IA-LM; first compound 1.265 µM) was 0.0937, the relative viability (IA-LM; first compound 4 µM) was 0.116 and the relative viability (LOU-NH91; first compound 0.04 µM) was 0.787. It also gave a relative viability (LOU-NH91; first compound 0.1265 µM) of 0.679, a relative viability (LOU-NH91; first compound 0.4 µM) of 0.624 and a relative viability (LOU-NH91; first compound 1.265 µM) of 0.501. It also gave a relative viability (LOU-NH91; first compound 4 µM) of 0.392, a relative viability (LXF-289; first compound 0.04 µM) of 0.915 and a relative viability (LXF-289; first compound 0.1265 µM) of 0.862. For the same compound, the relative viability (LXF-289; first compound 0.4 µM) was 0.917, the relative viability (LXF-289; first compound 1.265 µM) was 0.851 and the relative viability (LXF-289; first compound 4 µM) was 0.704. For the same compound, the relative viability (NCI-H1299; first compound 0.04 µM) was 0.975, the relative viability (NCI-H1299; first compound 0.1265 µM) was 0.802 and the relative viability (NCI-H1299; first compound 0.4 µM) was 0.837. It also gave a relative viability (NCI-H1299; first compound 1.265 µM) of 0.391, a relative viability (NCI-H1299; first compound 4 µM) of 0.316 and a relative viability (NCI-H1437; first compound 0.04 µM) of 0.72. The relative viability (NCI-H1437; first compound 0.1265 µM) was 0.463, the relative viability (NCI-H1437; first compound 0.4 µM) was 0.403 and the relative viability (NCI-H1437; first compound 1.265 µM) was 0.194. The relative viability (NCI-H1437; first compound 4 µM) was 0.216, the relative viability (NCI-H1703; first compound 0.04 µM) was 1.07 and the relative viability (NCI-H1703; first compound 0.1265 µM) was 0.764. It also gave a relative viability (NCI-H1703; first compound 0.4 µM) of 1.2, a relative viability (NCI-H1703; first compound 1.265 µM) of 0.47 and a relative viability (NCI-H1703; first compound 4 µM) of 0.432. The relative viability (NCI-H2085; first compound 0.04 µM) was 0.748, the relative viability (NCI-H2085; first compound 0.1265 µM) was 0.723 and the relative viability (NCI-H2085; first compound 0.4 µM) was 0.621. The relative viability (NCI-H2085; first compound 1.265 µM) was 0.409, the relative viability (NCI-H2085; first compound 4 µM) was 0.396 and the relative viability (NCI-H3122; first compound 0.04 µM) was 0.996. The relative viability (NCI-H3122; first compound 0.1265 µM) was 0.974, the relative viability (NCI-H3122; first compound 0.4 µM) was 0.981 and the relative viability (NCI-H3122; first compound 1.265 µM) was 1.02. It also gave a relative viability (NCI-H3122; first compound 4 µM) of 0.876.
